Measurements reported in US12478081B2, “Application of aspartic acid derivative in preparing animal feed additive” (ANIPHA TECHNOLOGIES PTY LTD, priority 2018, dated 2025).
Marks after values point to notes of the source that are not given here.

tested on: not listed separately; assay: Thermal stability of compounds at 60° C. (HPLC content of raw material and 2% premix); type: physicochemical; conditions: 2% premix, Day 5, relative to Day 0
Procedure: The variations of the contents of the main ingredient of the aspartic acid derivative raw material and the main ingredient of a premix containing 2% mass fraction of the aspartic acid derivative (hereinafter referred to as 2% premix) over time were investigated under the conditions of stability test at 60° C.
Experimental apparatus: drug stability incubator, Waters high-performance liquid chromatograph (HPLC), etc.
Test samples: N-carbamoyl-DL-aspartic acid (compound 1), diethyl N-carbamoyl-DL-aspartate (compound 2), Sodium N-carbamoyl-DL-aspartate (compound 3), Calcium N-carbamoyl-DL-aspartate (compound 4), Zinc N-carbamoyl-DL-aspartate (compound 5), Copper N-carbamoyl-DL-aspartate (compound 6), Iron N-carbamoyl-DL-aspartate (compound 7), N-glycyl-DL-aspartic acid (compound 8), N-(4-aminobutyryl)-DL-aspartic acid (compound 9), N-(10-aminodecanoyl)-DL-aspartic acid (compound 10), N-(14-aminomyristoyl)-DL-aspartic acid (compound 11).
Preparation of standard solution: 50 mg of the test sample raw material was ultrasonically dissolved in 50 mL of water to obtain a working reserve solution. An appropriate amount of the working reserve solution was taken and diluted with water respectively to concentrations of 125 ppm, 250 ppm, 500 ppm, and 1000 ppm for HPLC testing. It was checked whether the sample concentrations are in a linear relationship with the peak area response values in HPLC, and a standard curve was established.
Preparation of test solution: An appropriate amount of the test sample raw material and an appropriate amount of a premix containing 2% mass fraction of the test sample (hereinafter referred to as 2% premix) were separately ultrasonically dissolved in an appropriate amount of water to form a 1000 ppm solution, which is filtered through a 0.22 µm filter membrane and then analyzed by HPLC.
HPLC analysis conditions: chromatographic column: Waters C18 column (250 mm×4.6 mm, 5 μm); mobile phase: 0.05% phosphoric acid:methanol=95:5 (v:v) (raw material); 0.05% phosphoric acid: methanol (gradient elution); methanol: 5%→40% (0-15 min) curve 6, 40%→5% (15-16 min) curve 1, 5% (16-23 min) curve 1, (premix, feed); detection wavelength: 210 nm; column temperature: 25° C.; sample size: 20 μL; flow rate: 1 mL/min.
Test method: The test sample raw material and its 2% premix were placed in a culture plate, spread into a thin layer of <5 mm, and placed at 60° C. Samples were taken on the day 5 and ? day 10 for HPLC detection. Each sample was sampled three times in parallel.

Compared with `NC(=O)NC(CC(=O)[O-])C(=O)[O-].[Na+].[Na+]` (racemic) [Compound 3, Sodium N-carbamoyl-DL-aspartate], `NC(=O)NC(CC(=O)[O-])C(=O)[O-].[Ca+2]` (racemic) [Compound 4, Calcium N-carbamoyl-DL-aspartate] is lower in “Detection result of the content of test sample (%) Day 5” value (“Detection result … (%) Day 5” below): 99.33% for the first, 98.93% for the second.

Compared with `NC(=O)NC(CC(=O)[O-])C(=O)[O-].[Zn+2]` (racemic) [Compound 5, Zinc N-carbamoyl-DL-aspartate], `NC(=O)NC(CC(=O)[O-])C(=O)[O-].[Cu+2]` (racemic) [Compound 6, Copper N-carbamoyl-DL-aspartate] is higher in “Detection result … (%) Day 5” value: 96.89% for the first, 98.28% for the second.

With `NC(=O)NC(CC(=O)[O-])C(=O)[O-].[Fe+2]` (racemic) [Compound 7, Iron N-carbamoyl-DL-aspartate] the “Detection result … (%) Day 5” value was 96.74%.

same assay, conditions: 2% premix, Day 10, relative to Day 0

Going from `NC(=O)NC(CC(=O)[O-])C(=O)[O-].[Na+].[Na+]` (racemic) [Compound 3, Sodium N-carbamoyl-DL-aspartate] to `NC(=O)NC(CC(=O)[O-])C(=O)[O-].[Ca+2]` (racemic) [Compound 4, Calcium N-carbamoyl-DL-aspartate], the “Detection result of the content of test sample (%) Day 10” value (“Detection result … (%) Day 10” for short) falls from 99.21% to 97.99%.

First: NC(=O)NC(CC(=O)[O-])C(=O)[O-].[Zn+2] (racemic) [Compound 5, Zinc N-carbamoyl-DL-aspartate]
Second: NC(=O)NC(CC(=O)[O-])C(=O)[O-].[Cu+2] (racemic) [Compound 6, Copper N-carbamoyl-DL-aspartate]
The “Detection result … (%) Day 10” value of the first is lower: 96.36% for the first, 97.94% for the second.

In the case of `NC(=O)NC(CC(=O)[O-])C(=O)[O-].[Fe+2]` (racemic) [Compound 7, Iron N-carbamoyl-DL-aspartate], the “Detection result … (%) Day 10” value is reported as 94.98%.

same assay, conditions: Raw material, Day 5, relative to Day 0

First: NC(=O)NC(CC(=O)[O-])C(=O)[O-].[Na+].[Na+] (racemic) [Compound 3, Sodium N-carbamoyl-DL-aspartate]
Second: NC(=O)NC(CC(=O)[O-])C(=O)[O-].[Ca+2] (racemic) [Compound 4, Calcium N-carbamoyl-DL-aspartate]
The “Detection result … (%) Day 5” value of the first is higher: 103.02% for the first, 101.54% for the second.

Compared with `NC(=O)NC(CC(=O)[O-])C(=O)[O-].[Zn+2]` (racemic) [Compound 5, Zinc N-carbamoyl-DL-aspartate], `NC(=O)NC(CC(=O)[O-])C(=O)[O-].[Cu+2]` (racemic) [Compound 6, Copper N-carbamoyl-DL-aspartate] is higher in “Detection result … (%) Day 5” value: 99.76% for the first, 99.91% for the second.

For `NC(=O)NC(CC(=O)[O-])C(=O)[O-].[Fe+2]` (racemic) [Compound 7, Iron N-carbamoyl-DL-aspartate], the “Detection result … (%) Day 5” value was 97.63%.

same assay, conditions: Raw material, Day 10, relative to Day 0

First: NC(=O)NC(CC(=O)[O-])C(=O)[O-].[Na+].[Na+] (racemic) [Compound 3, Sodium N-carbamoyl-DL-aspartate]
Second: NC(=O)NC(CC(=O)[O-])C(=O)[O-].[Ca+2] (racemic) [Compound 4, Calcium N-carbamoyl-DL-aspartate]
The “Detection result … (%) Day 10” value of the first is higher: 103.53% for the first, 101.87% for the second.

Going from `NC(=O)NC(CC(=O)[O-])C(=O)[O-].[Zn+2]` (racemic) [Compound 5, Zinc N-carbamoyl-DL-aspartate] to `NC(=O)NC(CC(=O)[O-])C(=O)[O-].[Cu+2]` (racemic) [Compound 6, Copper N-carbamoyl-DL-aspartate], the “Detection result … (%) Day 10” value falls from 98.47% to 98.31%.

With `NC(=O)NC(CC(=O)[O-])C(=O)[O-].[Fe+2]` (racemic) [Compound 7, Iron N-carbamoyl-DL-aspartate] the “Detection result … (%) Day 10” value was 96.01%.

tested on: weaned piglets; assay: Breeding test: production performance of weaned piglets; type: in vivo, Duroc×Landrace×Yorkshire cross-bred weaned piglets; conditions: weaned piglets, 1000 ppm metal ion salt in basal daily ration, 40 days
Source text: From 95 litters of 28±2 days old Duroc×Landrace×Yorkshire cross-bred weaned piglets, 360 clinically healthy piglets with similar body weights were selected as test pigs, which were randomly divided into 12 groups, with 3 replications per group and 10 pigs (half of male and female) per replication. The piglets were attracted to the food trough at the age of 7 days, and the hog house for 28-day-old weaned pigs has a cement floor, steel fence, good ventilation, and suitable temperature. The pigpens and utensils were sterilized before the test.
During the test period, the test pigs were free-stall housed in the same pigpen under the same feeding and management conditions, and were free to drink water and eat feed. The hog house was cleaned once a day, and the floor is washed once every three days to maintain clean and hygienic conditions. The test pigs were fed three times a day. The test groups include control and test groups. Group I is the control group, in which only the basal daily ration was fed to the piglets. […] 1000 ppm of a the aspartic acid derivative metal ion salt was added into the basal daily ration for the piglets in the groups VIII-XII, as shown in Table 2. No other antioxidant ingredients or growth promoters were added for the test groups during the entire feeding process. The test period was 40 days.
The test pigs were weighed during 7:00 to 9:00 in the morning of Day 0 and Day 40 after the start of the test. During the test period, the feed intake and health status of the piglets were observed every day, the remaining daily ration was weighed, the feed consumption was recorded, and the average daily feed intake (ADFI, g/d*each pig), the average daily gain (ADG, g/d*each pig), and the feed conversion ratio (FCR) were calculated. Calculation formulas are as follows: […]
The test data was statistically analyzed using SPSS18 software. First, a one-way analysis of variance (ANOVA) was performed on the data. If the difference between treatments is significant, Duncan's method was used for multiple comparisons, and the significance level was 0.05.

With `NC(=O)NC(CC(=O)[O-])C(=O)[O-].[Na+].[Na+]` (racemic) [Compound 3, Sodium N-carbamoyl-DL-aspartate] the “ADFI (g/d*each pig)” value was 388 ± 11^bc g/d*each pig.
For `NC(=O)NC(CC(=O)[O-])C(=O)[O-].[Ca+2]` (racemic) [Compound 4, Calcium N-carbamoyl-DL-aspartate], the “ADFI (g/d*each pig)” value was 333 ± 8^a g/d*each pig.
For `NC(=O)NC(CC(=O)[O-])C(=O)[O-].[Zn+2]` (racemic) [Compound 5, Zinc N-carbamoyl-DL-aspartate], the “ADFI (g/d*each pig)” value was 418 ± 19^c g/d*each pig.
With `NC(=O)NC(CC(=O)[O-])C(=O)[O-].[Cu+2]` (racemic) [Compound 6, Copper N-carbamoyl-DL-aspartate] the “ADFI (g/d*each pig)” value was 329 ± 13^a g/d*each pig.
In the case of `NC(=O)NC(CC(=O)[O-])C(=O)[O-].[Fe+2]` (racemic) [Compound 7, Iron N-carbamoyl-DL-aspartate], the “ADFI (g/d*each pig)” value is reported as 330 ± 11^a g/d*each pig.

With `NC(=O)NC(CC(=O)[O-])C(=O)[O-].[Na+].[Na+]` (racemic) [Compound 3, Sodium N-carbamoyl-DL-aspartate] the “ADG (g/d*each pig)” value was 182 ± 2^d g/d*each pig.
For `NC(=O)NC(CC(=O)[O-])C(=O)[O-].[Ca+2]` (racemic) [Compound 4, Calcium N-carbamoyl-DL-aspartate], the “ADG (g/d*each pig)” value was 157 ± 0^c g/d*each pig.
With `NC(=O)NC(CC(=O)[O-])C(=O)[O-].[Zn+2]` (racemic) [Compound 5, Zinc N-carbamoyl-DL-aspartate] the “ADG (g/d*each pig)” value was 198 ± 3^6 g/d*each pig.
In the case of `NC(=O)NC(CC(=O)[O-])C(=O)[O-].[Cu+2]` (racemic) [Compound 6, Copper N-carbamoyl-DL-aspartate], the “ADG (g/d*each pig)” value is reported as 156 ± 1^c g/d*each pig.
For `NC(=O)NC(CC(=O)[O-])C(=O)[O-].[Fe+2]` (racemic) [Compound 7, Iron N-carbamoyl-DL-aspartate], the “ADG (g/d*each pig)” value was 153 ± 1^bc g/d*each pig.

`NC(=O)NC(CC(=O)[O-])C(=O)[O-].[Na+].[Na+]` (racemic) [Compound 3, Sodium N-carbamoyl-DL-aspartate] and `NC(=O)NC(CC(=O)[O-])C(=O)[O-].[Ca+2]` (racemic) [Compound 4, Calcium N-carbamoyl-DL-aspartate] are the same in FCR: 2.13 ± 0.04 for the first, 2.13 ± 0.05 for the second.

`NC(=O)NC(CC(=O)[O-])C(=O)[O-].[Zn+2]` (racemic) [Compound 5, Zinc N-carbamoyl-DL-aspartate] and `NC(=O)NC(CC(=O)[O-])C(=O)[O-].[Cu+2]` (racemic) [Compound 6, Copper N-carbamoyl-DL-aspartate] are the same in FCR: 2.11 ± 0.07 for the first, 2.11 ± 0.07 for the second.

Work on `NC(=O)NC(CC(=O)[O-])C(=O)[O-].[Fe+2]` (racemic) [Compound 7, Iron N-carbamoyl-DL-aspartate] yielded an FCR of 2.15 ± 0.06.
